Data set [1] concerns NHDF. Put plainly: Cytotoxicity against human dermal fibroblast assessed as reduction in cell viability at 20 uM after 3 days by MTT assay. The format is cell-based. Conditions: 72 h, time 3 day.
The test system of data set [2] is NHDF. Put plainly: Senolytic activity in 35 passages senescent human dermal fibroblast cells assessed as reduction cell viability at 20 uM after 3 days by MTT assay relative to control. The format is functional. (In general: Tetrazolium dyes change colour on reduction, which living cells bring about.)
Data set [3] has as its target T1, Cyclin-dependent kinase inhibitor 2A (Homo sapiens) (UniProt P42771).
T1 sequence (whole entry): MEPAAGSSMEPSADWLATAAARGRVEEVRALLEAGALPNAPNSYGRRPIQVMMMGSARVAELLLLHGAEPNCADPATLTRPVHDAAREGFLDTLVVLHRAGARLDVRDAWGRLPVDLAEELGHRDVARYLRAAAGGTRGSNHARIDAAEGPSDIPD
Description: Inhibition of GFP-tagged p16INK4A (unknown orgin) expressed in human dermal fibroblast at 20 uM after 24 hrs by renilla/firefly dual-luciferase reporter assay relative to control. In kind it is cell-based. To be noted: NHDF. (A reporter such as luciferase makes a cellular process visible.)

Molecules are shown by their SMILES. The source made the active and inactive calls. The rule behind the calls is not given here.

With `O=C1c2c(cc(O)c3c2O[C@H](c2ccc(O)cc2)[C@H]3c2cc(O)cc(O)c2)O[C@@H](c2ccc(O)cc2)[C@@H]1O`, the Activity entry in the data set with NHDF [1] is “Non-Toxic”. With `COc1cc(CC[C@@H]2CC(=O)c3ccccc3O2)ccc1O`, the outcome in the data set with NHDF [2] (time 3.0 day) was Active. Besides, the Activity entry with NHDF [1] was “Non-Toxic”. Regarding `O=C1c2c(cc(O[C@@H]3O[C@H](CO)[C@@H](O)[C@H](O)[C@H]3O)c3c2O[C@H](c2ccc(O)cc2)[C@H]3c2cc(O)cc(O)c2)O[C@@H](c2ccc(O)c(O)c2)[C@@H]1O`, in the data set with NHDF [1], the Activity entry is on record as “Non-Toxic”. For the molecule `COc1cc(CCc2oc3ccccc3c(=O)c2OC)ccc1O`, the Activity entry with NHDF [1] is recorded as “Non-Toxic”.

As for `O=C1c2c(cc(O[C@@H]3O[C@H](CO)[C@@H](O)[C@H](O)[C@H]3O)c3c2O[C@H](c2ccc(O)cc2)[C@H]3c2cc(O)cc(O)c2)O[C@H](c2ccc(O)c(O)c2)[C@H]1O`, the Activity entry in the data set with NHDF [1] is “Non-Toxic”. Regarding `O=C1c2c(cc(O)c3c2O[C@H](c2ccc(O[C@@H]4O[C@H](CO)[C@@H](O)[C@H](O)[C@H]4O)cc2)[C@H]3c2cc(O)cc(O)c2)O[C@@H](c2ccc(O)c(O)c2)[C@@H]1O`, the Activity result with NHDF [1] is “Non-Toxic”.

Consider `O=C1C[C@@H](CCc2cccc(O)c2)Oc2ccccc21`, for which the Activity entry in the data set with NHDF [1] is on record as “Non-Toxic”.

The term inhibition denotes the share of the control response that was lost under treatment. The low end stands for a response near the control, the high end for a response far below the control. As for `O=C1c2c(cc(O)c3c(-c4cc(O)cc(O)c4)c(-c4ccc(O)cc4)oc23)O[C@@H](c2ccc(O)cc2)[C@@H]1O`, the inhibition in data set [3] worked out at 32%. The Activity is recorded as 34% in the data set with NHDF [2] (time 3 day) and “Non-Toxic” in the data set with NHDF [1].

As to `COc1cc(CCc2oc3ccccc3c(=O)c2O)ccc1O`, in the data set with NHDF [1], the Activity entry is “Non-Toxic”.

For the molecule `COc1c(CCc2cccc(O)c2)oc2ccccc2c1=O`, the Activity entry in the data set on NHDF [1] is on record as “Non-Toxic”.

In the case of `O=C1c2c(cc(O)c3c2O[C@H](c2ccc(O)cc2)[C@H]3c2cc(O)cc(O)c2)O[C@@H](c2ccc(O)c(O)c2)[C@@H]1O`, in the data set on NHDF [1], the Activity result is “Non-Toxic”. Consider `O=C1C[C@@H](CCc2ccc(O)cc2)Oc2ccccc21`, for which the outcome with NHDF [2] (time 3.0 day) was Active. Moreover, the Activity result in the data set on NHDF [1] was “Non-Toxic”.
